Values joined by “and” are separate entries in the source; they are usually repeats but may differ in a detail not shown here. Equal values may be shown once. Inconclusive results and toxic doses are left out. Rule for the calls: active = survival T/C of 150% or more; inactive = T/C below 125% in these data.
System: P388 leukemia ip, CD2F1 mice, survival T/C
Assay: NCI In Vivo Anticancer Drug Screen. Data for tumor model P388 Leukemia (intraperitoneal) in CD2F1 (CDF1) mice
Conditions: endpoint: median survival time, higher = longer survival
Procedure, shortened: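 Mice carrying the transplanted tumor received test compound or vehicle. Survival was recorded in each group, and the value is the treated-group measurement divided by that of the vehicle-treated control group.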

[1] = dose: 100.0 mg/kg/injection, schedule: Q01DX001 (ip), vehicle: saline with Tween-80
[2] = dose: 100.0 mg/kg/injection, schedule: Q04DX002 (ip), vehicle: saline with Tween-80
[3] = dose: 200.0 mg/kg/injection, schedule: Q04DX002 (ip), vehicle: saline with Tween-80
[4] = dose: 400.0 mg/kg/injection, schedule: Q04DX002 (ip), vehicle: saline with Tween-80
[5] = dose: 50.0 mg/kg/injection, schedule: Q01DX009 (ip), vehicle: saline with Tween-80
[6] = dose: 100.0 mg/kg/injection, schedule: Q04DX002 (ip), vehicle: saline
[7] = dose: 200.0 mg/kg/injection, schedule: Q04DX002 (ip), vehicle: saline
[8] = dose: 400.0 mg/kg/injection, schedule: Q04DX002 (ip), vehicle: saline
[9] = dose: 60.0 mg/kg/injection, schedule: Q01DX005 (ip), vehicle: saline with Tween-80
[10] = dose: 120.0 mg/kg/injection, schedule: Q01DX005 (ip), vehicle: saline with Tween-80
[11] = dose: 240.0 mg/kg/injection, schedule: Q01DX005 (ip), vehicle: saline with Tween-80
[12] = dose: 50.0 mg/kg/injection, schedule: Q01DX005 (ip), vehicle: saline with Tween-80
[13] = dose: 100.0 mg/kg/injection, schedule: Q01DX005 (ip), vehicle: saline with Tween-80
[14] = dose: 50.0 mg/kg/injection, schedule: Q01DX005 (ip), vehicle: Klucel (hydroxypropylcellulose) (HPC)
[15] = dose: 100.0 mg/kg/injection, schedule: Q01DX005 (ip), vehicle: Klucel (hydroxypropylcellulose) (HPC)
[16] = dose: 200.0 mg/kg/injection, schedule: Q01DX005 (ip), vehicle: Klucel (hydroxypropylcellulose) (HPC)
[17] = dose: 50.0 mg/kg/injection, schedule: Q01DX009 (ip), vehicle: Klucel (hydroxypropylcellulose) (HPC)
[18] = dose: 100.0 mg/kg/injection, schedule: Q01DX009 (ip), vehicle: Klucel (hydroxypropylcellulose) (HPC)

Measured: T/C

C[C@]12CCC(=O)C=C1CC[C@@H]1[C@@H]2[C@@H](O)C[C@@]2(C)[C@H]1CC[C@]2(O)C(=O)COC(=O)COCC(=O)O
inactive: dose: 100.0 mg/kg/injection, schedule: Q04DX003 (ip), vehicle: saline with Tween-80 104 % of control | dose: 200.0 mg/kg/injection, schedule: Q04DX003 (ip), vehicle: saline with Tween-80 100 % of control | dose: 400.0 mg/kg/injection, schedule: Q04DX003 (ip), vehicle: saline with Tween-80 116 % of control

C=C1C(=O)OC2C=CCCCC12 (centres undefined)
inactive: dose: 50.0 mg/kg/injection, schedule: Q01DX001 (ip), vehicle: saline with Tween-80 105 % of control | [1] 102 % of control

CCOc1nc(N)nc(C)c1N=Nc1ccc(O)cc1
inactive: dose: 60.0 mg/kg/injection, schedule: Q01DX005 (ip), vehicle: saline 100 % of control | dose: 120.0 mg/kg/injection, schedule: Q01DX005 (ip), vehicle: saline 99 % of control | dose: 240.0 mg/kg/injection, schedule: Q01DX005 (ip), vehicle: saline 96 % of control

CCOC(=O)C1=CNN=CC12C(=O)C(C(=O)OCC)CC2C(=O)OCC (centres undefined)
inactive: [2] 96 % of control | [3] 93 % of control | [4] 92 % of control

CCOC(=O)C1CCCCC12OCCO2 (centres undefined)
inactive: dose: 50.0 mg/kg/injection, schedule: Q01DX005 (ip), vehicle: saline 95 % of control | dose: 100.0 mg/kg/injection, schedule: Q01DX005 (ip), vehicle: saline 96 % of control | dose: 200.0 mg/kg/injection, schedule: Q01DX005 (ip), vehicle: saline 95 % of control

O=C(OCC1CC=CCC1CCl)c1ccccc1 (centres undefined)
inactive: [5] 96 % of control | dose: 100.0 mg/kg/injection, schedule: Q01DX009 (ip), vehicle: saline with Tween-80 99 % of control | dose: 200.0 mg/kg/injection, schedule: Q01DX009 (ip), vehicle: saline with Tween-80 99 % of control

CCN(CC)S(=O)(=O)C(=[N+]=[N-])P(=O)(OC)OC
inactive: [6] 100 % of control | [7] 112 % of control | [8] 100 % of control

COC(=O)C1C2C=CC(C1C(=O)OC)C1C(C(=O)NN)C(C(=O)NN)C21 (centres undefined)
inactive: [9] 98 % of control | [10] 97 % of control | [11] 96 % of control

Cc1ncc(Cn2c(C)c(CCO)sc2=S)c(N)n1
inactive: dose: 50.0 mg/kg/injection, schedule: Q01DX009 (ip), vehicle: saline 99 % of control | dose: 100.0 mg/kg/injection, schedule: Q01DX009 (ip), vehicle: saline 101 % of control | dose: 200.0 mg/kg/injection, schedule: Q01DX009 (ip), vehicle: saline 108 % of control

N#CSC1=C(SC#N)C1(F)F
inactive: dose: 12.5 mg/kg/injection, schedule: Q04DX002 (ip), vehicle: Klucel (hydroxypropylcellulose) (HPC) 100 % of control | dose: 25.0 mg/kg/injection, schedule: Q04DX002 (ip), vehicle: Klucel (hydroxypropylcellulose) (HPC) 100 % of control | dose: 50.0 mg/kg/injection, schedule: Q04DX002 (ip), vehicle: Klucel (hydroxypropylcellulose) (HPC) 104 % of control

COC(=O)C1=CC(=O)N2CCN=C2S1
inactive: [12] 103 % of control | [13] 100 % of control | dose: 200.0 mg/kg/injection, schedule: Q01DX005 (ip), vehicle: saline with Tween-80 90 % of control

CCOC(=O)C1C(=O)N2C(=O)C(NC(C)=O)=C(O)C2C1c1ccc(OC)cc1 (centres undefined)
inactive: [2] 100 % of control | [3] 100 % of control | [4] 98 % of control

S=C1SC2=NCCN2C2=NCCN12
inactive: dose: 11.25 mg/kg/injection, schedule: Q01DX001 (ip), vehicle: Klucel (hydroxypropylcellulose) (HPC) 96 % of control | dose: 22.5 mg/kg/injection, schedule: Q01DX001 (ip), vehicle: Klucel (hydroxypropylcellulose) (HPC) 102 % of control | dose: 45.0 mg/kg/injection, schedule: Q01DX001 (ip), vehicle: Klucel (hydroxypropylcellulose) (HPC) 100 % of control

O=C1N(C2CCCCC2)C(/C=C/c2ccccc2)C1(c1ccccc1)c1ccccc1 (centres undefined)
inactive: dose: 25.0 mg/kg/injection, schedule: Q01DX005 (ip), vehicle: Klucel (hydroxypropylcellulose) (HPC) 96 % of control | [14] 94 % of control | [15] 88 % of control | [16] 89 % of control and 91 % of control

COc1cc([C@H]2OC[C@H]3[C@@H]2CO[C@@H]3c2cc(OC)c3c(c2)OCO3)cc(OC)c1OC
inactive: dose: 9.75 mg/kg/injection, schedule: Q01DX009 (ip), vehicle: saline + Tween-80 + alcohol 93 % of control | dose: 19.5 mg/kg/injection, schedule: Q01DX009 (ip), vehicle: saline + Tween-80 + alcohol 106 % of control | dose: 39.0 mg/kg/injection, schedule: Q01DX009 (ip), vehicle: saline + Tween-80 + alcohol 99 % of control | dose: 78.0 mg/kg/injection, schedule: Q01DX009 (ip), vehicle: saline + Tween-80 + alcohol 107 % of control

Fc1c(F)c(-c2c(F)c(F)c(OCC3CO3)c(F)c2F)c(F)c(F)c1OCC1CO1 (centres undefined)
inactive: [17] 98 % of control | [18] 103 % of control | dose: 200.0 mg/kg/injection, schedule: Q01DX009 (ip), vehicle: Klucel (hydroxypropylcellulose) (HPC) 102 % of control

O=C(N/N=C/c1cc(Cl)cc(Cl)c1[O-])c1ccccc1.O=C(N/N=C/c1cc(Cl)cc(Cl)c1[O-])c1ccccc1.[Cu+2]
inactive: [1] 94 % of control | dose: 200.0 mg/kg/injection, schedule: Q01DX001 (ip), vehicle: saline with Tween-80 92 % of control | dose: 400.0 mg/kg/injection, schedule: Q01DX001 (ip), vehicle: saline with Tween-80 104 % of control

O=C1OC(=O)c2ncccc21
inactive: dose: 6.25 mg/kg/injection, schedule: Q01DX009 (ip), vehicle: saline with Tween-80 101 % of control | dose: 12.5 mg/kg/injection, schedule: Q01DX009 (ip), vehicle: saline with Tween-80 96 % of control | dose: 25.0 mg/kg/injection, schedule: Q01DX009 (ip), vehicle: saline with Tween-80 101 % of control | [5] 111 % of control

CCCCC1(CCN(CC)c2ccccc2)C(=O)NC(=O)NC1=O
inactive: [14] 101 % of control | [15] 99 % of control | [16] 99 % of control

Cc1cc([N+](=O)[O-])ccc1N=Nc1ccc(O)c(C(=O)O)c1
inactive: [12] 105 % of control | [13] 95 % of control

NC(N)=N/N=C/COc1cccnc1
inactive: [9] 97 % of control | [10] 100 % of control | [11] 97 % of control

O=C(O)/C=C/S(=O)(=O)c1ccc(Cl)cc1
inactive: dose: 5.0 mg/kg/injection, schedule: Q01DX009 (ip), vehicle: Klucel (hydroxypropylcellulose) (HPC) 89 % of control | dose: 10.0 mg/kg/injection, schedule: Q01DX009 (ip), vehicle: Klucel (hydroxypropylcellulose) (HPC) 98 % of control | dose: 20.0 mg/kg/injection, schedule: Q01DX009 (ip), vehicle: Klucel (hydroxypropylcellulose) (HPC) 96 % of control | dose: 40.0 mg/kg/injection, schedule: Q01DX009 (ip), vehicle: Klucel (hydroxypropylcellulose) (HPC) 99 % of control

O=C1C(Sc2ccccc2)CCCC1Sc1ccccc1 (centres undefined)
inactive: dose: 25.0 mg/kg/injection, schedule: Q01DX009 (ip), vehicle: Klucel (hydroxypropylcellulose) (HPC) 109 % of control | [17] 100 % of control | [18] 98 % of control

CN(C)CCCNC1C(C2COC(C)(C)O2)OC2OC(C)(C)OC21 (centres undefined)
inactive: [6] 97 % of control | [7] 95 % of control | [8] 93 % of control
